pKi: −log10 of the molar value. Active and inactive are the calls of the source. No cut-off for these calls is given here.
Experiments:
[1] = target: T1, D-alanyl-D-alanine dipeptidase (Enterococcus faecium, UniProt Q06241); assay: Inhibition of Enterococcus faecium VanX expressed in Escherichia coli BL21 (DE3) cells using D-alanyl-alpha-R-phenylthioglycine as substrate by colorimetric assay
T1 sequence (Q06241 whole entry): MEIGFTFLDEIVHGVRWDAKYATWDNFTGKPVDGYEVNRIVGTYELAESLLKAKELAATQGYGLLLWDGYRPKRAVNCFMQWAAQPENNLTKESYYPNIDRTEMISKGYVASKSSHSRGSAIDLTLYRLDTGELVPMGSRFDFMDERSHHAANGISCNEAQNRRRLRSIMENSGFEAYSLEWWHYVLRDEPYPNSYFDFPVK

[2] = Cytotoxicity against HEK293 cells after 72 hrs by MTT assay; assay type: cell-based; conditions: human
Enterococcus faecium [3] = assay: Increase in vancomycin sensitivity in vancomycin-resistant Enterococcus faecium E12-2 assessed as reduction in vancomycin MIC at 72 ug/ml by checkerboard analysis; assay type: functional, organism-based
Enterococcus faecium [4] = assay: Antibacterial activity against vancomycin-resistant Enterococcus faecium E12-2 assessed as growth inhibition by checkerboard analysis; assay type: functional, organism-based
Enterococcus faecium [5] = assay: Increase in vancomycin sensitivity in vancomycin-resistant Enterococcus faecium E12-2 assessed as reduction in vancomycin MIC at 212 ug/ml by checkerboard analysis; assay type: functional, organism-based

| SMILES | pKi [1] | CC50 at 72 h [2] [µM] | Activity (Enterococcus faecium [3]) | inhibition (Enterococcus faecium [4]) | Activity (Enterococcus faecium [5]) |
| --- | --- | --- | --- | --- | --- |
| CC(C)[C@H](CP(=O)(O)[C@@H](C)N)C(=O)O | 5.21 | – | – | – | – |
| CC1(C)S[C@@H]2[C@H](NC(=O)[C@H](N)c3ccc(O)cc3)C(=O)N2[C@H]1C(=O)O [AMOXICILLIN] | – | 24 | – | – | – |
| O=C(N[C@@H](C(=O)O)c1ccccc1)c1cccc(=S)n1O | 5.56 | 64 | Active | inactive | – |
| C[C@H](CP(=O)(O)[C@@H](C)N)C(=O)O | 5.82 | – | – | – | – |
| C[C@@H](NC(=O)c1cccc(=S)n1O)C(=O)O | 5.16 | 76 | – | inactive | Active |
| CN[C@H](CC(C)C)C(=O)N[C@H]1C(=O)N[C@@H](CC(N)=O)C(=O)N[C@H]2C(=O)N[C@H]3C(=O)N[C@H](C(=O)N[C@H](C(=O)O)c4cc(O)cc(O)c4-c4cc3ccc4O)[C@H](O)c3ccc(c(Cl)c3)Oc3cc2cc(c3O[C@@H]2O[C@H](CO)[C@@H](O)[C@H](O)[C@H]2O[C@H]2C[C@](C)(N)[C@H](O)[C@H](C)O2)Oc2ccc(cc2Cl)[C@H]1O [VANCOMYCIN] | – | > 100 | – | – | – |
| C[C@@H](N)P(=O)(O)C[C@H](C(=O)O)c1ccccc1 | 5.54 | – | – | – | – |

Reference: ChEMBL document CHEMBL3259752, “Cell permeable vanX inhibitors as vancomycin re-sensitizing agents” (Bioorg Med Chem Lett, 2014)
